Experimental data as given in paper PMC7797213, “Vascular effects of serelaxin in patients with stable coronary artery disease: a randomized placebo-controlled trial” (Cardiovascular Research, 2020).

Experiments:
Type in all cases: in vivo, human
[1] = test system: patients with stable coronary artery disease; experiment: CMR left and right ventricular volumes and ejection fraction
Excerpt: A standardized CMR protocol was acquired on 1.5 T (Siemens Avanto) or 3.0 T (Siemens Skyra and Verio) magnetic resonance imaging (MRI) scanners. The CMR protocol included standard localizers, long- and short-axis cine acquisitions, stress and rest first-pass perfusion, and late gadolinium enhancement (LGE) imaging as previously described.[24] For perfusion imaging, a saturation recovery prepared fast gradient echo sequence was used to acquire dynamic contrast-enhanced CMR during adenosine stress (140–280 µg/kg/min for 3 min) and rest, during first-pass of the IV administered contrast agent (Gadovist, 0.05 mmol/kg, 5 mL/s), followed by 20 mL saline injection (5 mL/s). Three short-axis planes through the left ventricle (basal, mid-ventricular, and apical) were obtained. […]
CMR image collection, blinding, and handling were managed by an independent imaging contract-research organization (CRO; VirtualScopics, Inc., Rochester, NY, USA). The CMR quantitative analyses were performed by blinded academic readers with >3 years of CMR experience (D.C., A.R., and C.B.). […] Global MPR was calculated from the ratio of global MBF evaluated at stress and at rest (MPR = stress MBF/rest MBF). Global MBF was calculated by averaging the MBF (mL/g/min) for basal, mid, and apical short-axis left ventricular slices. […] The presence or absence of myocardial scar was qualitatively assessed on the LGE images.

[2] = test system: patients with stable coronary artery disease; experiment: Aortic MRI measurements of arterial stiffness (strain, distensibility, peak flow velocity); conditions: for Ascending aorta distensibility / Ascending aorta strain / Descending aorta distensibility / Descending aorta strain / Peak flow velocity: mean ± SD
Description: Full left ventricular short-axis stack of cine images was acquired during the interval between stress and rest first-pass perfusion acquisitions. Following administration of the top-up contrast dose (Gadovist 0.05 mmol/kg), aortic cine and phase-velocity encoding sequences were acquired at the level of the pulmonary artery bifurcation. LGE imaging was performed with a segmented phase-sensitive inversion recovery sequence.
CMR image collection, blinding, and handling were managed by an independent imaging contract-research organization (CRO; VirtualScopics, Inc., Rochester, NY, USA). The CMR quantitative analyses were performed by blinded academic readers with >3 years of CMR experience (D.C., A.R., and C.B.). Cine images for ventricular volumes and mass and myocardial perfusion images were manually contoured (QMass, Medis, Leiden, Netherlands). Myocardial blood flow (MBF) was derived from stress and rest perfusion images using a Fermi deconvolution method,[25] implemented in MATLAB.[26] Global MPR was calculated from the ratio of global MBF evaluated at stress and at rest (MPR = stress MBF/rest MBF). Global MBF was calculated by averaging the MBF (mL/g/min) for basal, mid, and apical short-axis left ventricular slices. Ascending and descending aortic strain and distensibility were derived from manually contoured end-diastolic and end-systolic aortic cine images. Aortic strain (AS, unit free fraction) = [maximum aortic lumen area − minimum aortic lumen area]/minimum aortic lumen area. Aortic distensibility (AD, mmHg^−^1) = aortic strain/pulse pressure. Ascending aortic peak flow velocity (m/s) was derived from manually contoured phase-velocity encoding sequence images (QFlow, Medis, Leiden, Netherlands). The presence or absence of myocardial scar was qualitatively assessed on the LGE images.
Model: Change from baseline was analysed using ANCOVA model including treatment as fixed effect and baseline as continuous covariate.

[3] = Immunogenicity: serum anti-serelaxin antibodies; conditions: Day 1 (baseline) and Day 30, all patients
Description: Blood was collected on Day 1 (baseline) and post-dose on Day 30 for assessment of immunogenicity. Serum anti-serelaxin antibody concentrations were evaluated using a validated four-tiered assay approach for antibody screening, confirmation, titration, and neutralizing antibody detection, when applicable.

[4] = test system: patients with stable coronary artery disease; experiment: Applanation tonometry-derived augmentation index (AIx); conditions: for AIx, absolute value: mean ± SD; for AIx, adjusted mean difference serelaxin versus placebo / AIx, change from baseline (adjusted mean): repeated measures ANCOVA
Description: (30 μg/kg/day) or matching placebo, using a computerized randomization system involving concealed treatment arms. The co-primary endpoints were the change from baseline in global myocardial perfusion reserve (MPR) measured by quantitative perfusion cardiac magnetic resonance (CMR) imaging and the change from baseline in augmentation index (AIx) measured by applanation tonometry. The primary endpoints of MPR and AIx were assessed at baseline and 47 h post-commencement of the infusion (Figure 1).
The applanation tonometry assessments were performed by blinded operators. Augmentation index [AIx = (augmentation pressure/pulse pressure) × 100], and carotid-femoral PWV were measured by applanation tonometry (Sphygmocor®, AtCor Medical, Australia) at a proximal (carotid artery) and a distal (femoral artery) site of the body, utilizing R-wave gated determination of the time interval between the two measurement points. An averaged carotid pressure waveform (from a 10 s recording) was converted into a corresponding central waveform using a validated transfer function (SphygmoCor®, AtCor, Australia).[27]^,[28]

[5] = baseline to day 3, ANCOVA, n=23

Q: For Serelaxin, which “Left and right ventricular volumes and ejection fractions, change from baseline compared with placebo” value ([1]; baseline to 47 h, CMR) is on record?
A: no statistically significant changes

Q: What about the “Left ventricular ejection fraction, mean value” ([1]; remained in the normal range, no significant changes with serelaxin treatment) of the same substance?
A: 63%

Q: And the Ascending aorta distensibility ([2]; 0 h (pre-dose baseline), n=24)?
A: 0.002 ± 0.002 (24) mm/Hg

Q: And the Ascending aorta strain ([2]; 0 h (pre-dose baseline), n=24)?
A: 0.12 ± 0.06 (24)

Q: And the Descending aorta distensibility ([2]; 0 h (pre-dose baseline), n=24)?
A: 0.002 ± 0.001 (24) mm/Hg

Q: What about the Descending aorta strain ([2]; 0 h (pre-dose baseline), n=24) of the same substance?
A: 0.16 ± 0.06 (24)

Q: And the Peak flow velocity ([2]; 0 h (pre-dose baseline), n=24)?
A: 128.00 ± 66.69 (24) cm/sec

Q: And the Ascending aorta distensibility ([2]; 47 h post-dose, n=23)?
A: 0.002 ± 0.001 (23) mm/Hg

Q: What about the Ascending aorta strain ([2]; 47 h post-dose, n=23) of the same substance?
A: 0.12 ± 0.06 (23)

Q: And the Descending aorta distensibility ([2]; 47 h post-dose, n=23)?
A: 0.002 ± 0.001 (23) mm/Hg

Q: And the Descending aorta strain ([2]; 47 h post-dose, n=23)?
A: 0.17 ± 0.05 (23)

Q: What about the Peak flow velocity ([2]; 47 h post-dose, n=23) of the same substance?
A: 127.98 ± 60.76 (23) cm/sec

Q: What about the “CMR-derived parameters of aortic stiffness, change from baseline to 47 h compared with placebo” value ([2]; ascending/descending aorta strain and distensibility, ascending aortic peak flow velocity, P > 0.05 for all) of the same substance?
A: no significant change

Q: And the “Ascending aorta distensibility, adjusted mean difference serelaxin versus placebo” value ([2]; baseline to day 3, ANCOVA)?
A: -0.0001 mm/Hg

Q: And the “Ascending aorta strain, adjusted mean difference serelaxin versus placebo” value ([2]; baseline to day 3, ANCOVA)?
A: 0.01

Q: And the “Descending aorta distensibility, adjusted mean difference serelaxin versus placebo” value ([2]; baseline to day 3, ANCOVA)?
A: -0.0001 mm/Hg

Q: What about the “Descending aorta strain, adjusted mean difference serelaxin versus placebo” value ([2]; baseline to day 3, ANCOVA) of the same substance?
A: 0.01

Q: And the “Peak flow velocity, adjusted mean difference serelaxin versus placebo” value ([2]; baseline to day 3, ANCOVA)?
A: 13.71 cm/sec

Q: What about the “Ascending aorta distensibility, change from baseline (adjusted mean)” value [2, 5] of the same substance?
A: -0.0001 mm/Hg

Q: What about the “Ascending aorta strain, change from baseline (adjusted mean)” value [2, 5] of the same substance?
A: 0.01

Q: What about the “Descending aorta distensibility, change from baseline (adjusted mean)” value [2, 5] of the same substance?
A: 0.0001 mm/Hg

Q: What about the “Descending aorta strain, change from baseline (adjusted mean)” value [2, 5] of the same substance?
A: 0.011

Q: And the “Peak flow velocity, change from baseline (adjusted mean)” value [2, 5]?
A: 10.12 cm/sec

Q: What about the Anti-serelaxin antibody status [3] of the same substance?
A: anti-serelaxin antibody negative

Q: And the “AIx, absolute value” ([4]; 0 h (pre-dose baseline), n=25)?
A: 25.81 ± 7.70 (25) %

Q: And the “AIx, adjusted mean difference serelaxin versus placebo” value ([4]; 2 h)?
A: -2.12%

Q: And the “AIx, change from baseline (adjusted mean)” value (“AIx, change from baseline” for short) ([4]; 2 h, n=23)?
A: -4.09%

Q: And the “AIx, absolute value” ([4]; 2 h post-dose, n=23)?
A: 22.17 ± 10.09 (23) %

Q: What about the “AIx, adjusted mean difference serelaxin versus placebo” value ([4]; 6 h) of the same substance?
A: -2.88%

Q: What about the “AIx, change from baseline” value ([4]; 6 h, n=24) of the same substance?
A: -3.28%

Q: What about the “AIx, absolute value” ([4]; 6 h post-dose, n=24) of the same substance?
A: 22.96 ± 6.95 (24) %

Q: And the “AIx, adjusted mean difference serelaxin versus placebo” value ([4]; 24 h)?
A: –0.84%

Q: What about the “AIx, change from baseline” value ([4]; 24 h, n=24) of the same substance?
A: -0.77%

Q: What about the “AIx, absolute value” ([4]; 24 h post-dose, n=24) of the same substance?
A: 25.08 ± 8.10 (24) %

Q: What about the “AIx, adjusted mean difference serelaxin versus placebo” value ([4]; 47 h) of the same substance?
A: 3.45%

Q: What about the “AIx, change from baseline” value ([4]; 47 h, n=23) of the same substance?
A: 3.49%

Q: And the “AIx, absolute value” ([4]; 47 h post-dose, n=23)?
A: 29.57 ± 9.75 (23) %

Q: And the “AIx, adjusted mean difference serelaxin versus placebo” value ([4]; 50 h)?
A: 3.25%

Q: What about the “AIx, change from baseline” value ([4]; 50 h, n=22) of the same substance?
A: -0.76%

Q: And the “AIx, absolute value” ([4]; 50 h post-dose, n=22)?
A: 24.89 ± 12.50 (22) %

Q: And the “AIx, adjusted mean difference serelaxin versus placebo” value ([4]; 54 h)?
A: -0.98%

Q: What about the “AIx, change from baseline” value ([4]; 54 h, n=22) of the same substance?
A: -1.74%

Q: And the “AIx, absolute value” ([4]; 54 h post-dose, n=22)?
A: 24.70 ± 10.62 (22) %

Q: What about the “AIx, absolute value” ([4]; Day 30, n=25) of the same substance?
A: 24.98 ± 9.05 (25) %

Q: And the “AIx, adjusted mean difference serelaxin versus placebo” value ([4]; Day 30)?
A: -1.76%

Q: And the “AIx, change from baseline” value ([4]; Day 30, n=25)?
A: -0.98%

Q: And the “AIx, absolute value” ([4]; Day 180, n=24)?
A: 26.15 ± 8.97 (24) %

Q: What about the “AIx, adjusted mean difference serelaxin versus placebo” value ([4]; Day 180) of the same substance?
A: -0.05%

Q: What about the “AIx, adjusted mean difference serelaxin versus placebo” value ([4]; Day 180, listed as serelaxin) of the same substance?
A: −0.05%

Q: And the “AIx, change from baseline” value ([4]; Day 180, n=24)?
A: 0.23%
